Laboratory results reported in patent US8729062B2, “Benzyl azetidine derivatives as sphingosine 1-phosphate (S1P) receptor modulators” (Allergan, Inc., priority 2010, dated 2014).

Target: T1, human S1P1 receptor (Homo sapiens, UniProt P21453)
T1 construct: expressed in transfected cells; membranes used
Assay: GTP γ35S binding assay for S1P1 activity
Format: biochemical
Conditions: membranes of cells stably expressing S1P1 receptor, agonist potency, test range 0.08 to 5,000 nM
Description: Compounds were synthesized and tested for S1P1 activity using the GTP γ^35S binding assay. These compounds may be assessed for their ability to activate or block activation of the human S1P1 receptor in cells stably expressing the S1P1 receptor.
GTP γ^35S binding was measured in the medium containing (mM) HEPES 25, pH 7.4, MgCl2 10, NaCl 100, dithitothreitol 0.5, digitonin 0.003%, 0.2 nM GTP γ^35S, and 5 μg membrane protein in a volume of 150 μl. Test compounds were included in the concentration range from 0.08 to 5,000 nM unless indicated otherwise. Membranes were incubated with 100 μM 5′-adenylylimmidodiphosphate for 30 min, and subsequently with 10 μM GDP for 10 min on ice. Drug solutions and membrane were mixed, and then reactions were initiated by adding GTP γ^35S and continued for 30 min at 25° C. Reaction mixtures were filtered over Whatman GF/B filters under vacuum, and washed three times with 3 mL of ice-cold buffer (HEPES 25, pH7.4, MgCl2 10 and NaCl 100). Filters were dried and mixed with scintillant, and counted for ^35S activity using a […]. Agonist-induced GTP γ^35S binding was obtained by subtracting that in the absence of agonist. Binding data were analyzed using a non-linear regression method. In case of antagonist assay, the reaction mixture contained 10 nM S1P in the presence of test antagonist at concentrations ranging from 0.08 to 5000 nM.

T1 sequence (P21453 whole entry): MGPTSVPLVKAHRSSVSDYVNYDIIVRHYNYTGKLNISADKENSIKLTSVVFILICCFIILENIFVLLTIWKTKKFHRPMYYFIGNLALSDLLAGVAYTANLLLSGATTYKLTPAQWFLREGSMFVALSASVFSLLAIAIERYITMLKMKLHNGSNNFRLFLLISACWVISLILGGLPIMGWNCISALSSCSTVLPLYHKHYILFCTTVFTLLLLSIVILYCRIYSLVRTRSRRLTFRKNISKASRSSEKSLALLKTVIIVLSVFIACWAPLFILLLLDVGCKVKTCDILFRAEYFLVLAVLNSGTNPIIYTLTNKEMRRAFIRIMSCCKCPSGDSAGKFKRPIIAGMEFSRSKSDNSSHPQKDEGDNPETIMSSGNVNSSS

Structure (SMILES) | EC50
O=C(O)C1CN(Cc2ccc(-c3noc(C(CC4CCCCC4)c4cccc(Cl)c4)n3)cc2)C1 (centres unmarked) [1-(4-{5-[1-(3-chlorophenyl)-2-cyclohexylethyl]-1,2,4-oxadiazol-3-yl}benzyl)azetidine-3-carboxylic acid] | 1240 nM
Cc1ccc(CC(c2nc(-c3ccc(CN4CC(C(=O)O)C4)cc3)no2)c2cccs2)cc1C (centres unmarked) [1-(4-{5-[2-(3,4-dimethylphenyl)-1-(2-thienyl)ethyl]-1,2,4-oxadiazol-3-yl}benzyl)azetidine-3-carboxylic acid] | 134 nM
Cc1cc(C)cc(C(Cc2ccc(C)c(C)c2)c2nc(-c3ccc(CN4CC(C(=O)O)C4)cc3)no2)c1 (centres unmarked) [1-(4-{5-[2-(3,4-dimethylphenyl)-1-(3,5-dimethylphenyl)ethyl]-1,2,4-oxadiazol-3-yl}benzyl)azetidine-3-carboxylic acid] | 535 nM
Cc1ccc(CC(c2ccsc2)c2nc(-c3ccc(CN4CC(C(=O)O)C4)cc3)no2)cc1C (centres unmarked) [1-(4-{5-[2-(3,4-dimethylphenyl)-1-(3-thienyl)ethyl]-1,2,4-oxadiazol-3-yl}benzyl)azetidine-3-carboxylic acid] | 76.7 nM
Cc1ccc(CC(c2nc(-c3ccc(CN4CC(C(=O)O)C4)cc3)no2)c2cccs2)cc1 (centres unmarked) [1-(4-{5-[2-(4-methylphenyl)-1-(2-thienyl)ethyl]-1,2,4-oxadiazol-3-yl}benzyl)azetidine-3-carboxylic acid] | 209 nM
Cc1ccc(CC(c2ccsc2)c2nc(-c3ccc(CN4CC(C(=O)O)C4)cc3)no2)cc1 (centres unmarked) [1-(4-{5-[2-(4-methylphenyl)-1-(3-thienyl)ethyl]-1,2,4-oxadiazol-3-yl}benzyl)azetidine-3-carboxylic acid] | 146 nM
Cc1ccc(CC(c2cccc(C(F)(F)F)c2)c2nc(-c3ccc(CN4CC(C(=O)O)C4)cc3)no2)cc1C (centres unmarked) [1-[4-(5-{2-(3,4-dimethylphenyl)-1-[3-(trifluoromethyl)phenyl]ethyl}-1,2,4-oxadiazol-3-yl)benzyl]azetidine-3-carboxylic acid] | 89.3 nM

Now those with a lower EC50, led by results:

EC50 | Structure (SMILES)
17.1 nM | Cc1ccc(CC(c2cc(F)cc(F)c2)c2nc(-c3ccc(CN4CC(C(=O)O)C4)cc3)no2)cc1C (centres unmarked) [1-(4-{5-[1-(3,5-difluorophenyl)-2-(3,4-dimethylphenyl)ethyl]-1,2,4-oxadiazol-3-yl}benzyl)azetidine-3-carboxylic acid]
29.9 nM | Cc1ccc(CC(c2cncc(Cl)c2)c2nc(-c3ccc(CN4CC(C(=O)O)C4)cc3)no2)cc1C (centres unmarked) [1-(4-{5-[1-(5-chloropyridin-3-yl)-2-(3,4-dimethylphenyl)ethyl]-1,2,4-oxadiazol-3-yl}benzyl)azetidine-3-carboxylic acid]
3.77 nM | Cc1ccc(CC(c2cccc(Cl)c2)c2nc(-c3ccc(CN4CC(C(=O)O)C4)cc3)no2)cc1C (centres unmarked) [Compound 1, 1-(4-{5-[1-(3-Chlorophenyl)-2-(3,4-dimethylphenyl)ethyl]-1,2,4-oxadiazol-3-yl}benzyl)azetidine-3-carboxylic acid]
1.5 nM | Cc1ccc(CC(c2cccc(F)c2)c2nc(-c3ccc(CN4CC(C(=O)O)C4)cc3)no2)cc1C (centres unmarked) [Compound 2, 1-(4-{5-[1-(3-fluorophenyl)-2-(3,4-dimethylphenyl)ethyl]-1,2,4-oxadiazol-3-yl}benzyl)azetidine-3-carboxylic acid]
